Measured values as given in article PMC11325505, “Nitrogen-Containing Flavonoids—Preparation and Biological Activity” (ACS Omega, 2024).
In brackets after ≈: the same amount, converted by molar mass. Several values for one entry are separate records, joined by “and”; a condition that tells them apart may be missing. Equal entries are not always repeated. Where two headings read alike, the source gives them in different places.

Legend:
RAW 264.7 cells = assay: Cellular antioxidant activity (CAA); type: cell-based, Murine; conditions: for IC50: average of four repetitions ± standard error of the mean
Description: To evaluate the antioxidant activity of the prepared derivatives and the respective parent compounds, cellular antioxidant activity (CAA) was measured in macrophages. Compared to other in vitro antioxidant assays, this method provides partial information about the uptake and metabolism of the compounds, because, in this assay, they must first enter the cell to exert antioxidant activity.[31] […] Derivatization of quercetin at C-8 with 4-fluoroaniline (5) increased the antioxidant activity of quercetin by 1.7-fold. […] The concentration of these derivatives required to halve the cellular radicals decreased 1.5-fold compared to luteolin.
Cellular antioxidant capacity was evaluated as previously described.[31],[39] Briefly, 100 μL of RAW 264.7 cells with a density corresponding to 1 × 10^6 cells/mL were split into 96-well plates. After 24 h, cells were washed with PBS, and DMEM supplemented with DCFH-DA (0.0125 mg/mL) was added to each well together with the tested samples in the concentration range of 1.5–200 μM. After 1 h incubation in a CO2 incubator, the medium was replaced with AAPH solution (0.16 mg/mL in PBS), and fluorescence was immediately recorded (ex./em. 485/540 nm) for 2 h in 5 min intervals.

[1] = tested on: tumor necrosis factor (TNF-α) production by RAW 264.7 stimulated by LPS; assay: Anti-inflammatory activity: TNF-α production by LPS-stimulated macrophages; type: cell-based, Murine; conditions: Mus musculus, RAW264.7; LPS-stimulated RAW 264.7; average of four repetitions ± SEM; read-out: TNFα production IC50
Description: The anti-inflammatory activity of flavonoids was evaluated as their ability to decrease the production of signaling molecules that mediate inflammation, such as nitric oxide (NO), tumor necrosis factor (TNF-α), and interleukin 6 (IL-6), in LPS-stimulated macrophages.
The anti-inflammatory activity of the tested flavonoids was determined as the ability to reduce the production of nitric oxide (NO), tumor necrosis factor (TNF-α), and interleukin 6 (IL-6) by RAW 264.7 stimulated by LPS, as previously described.[39],[40] Briefly, 1 × 10^6 cells/mL was seeded into the 96-well plate (100 μL/well). After 48 h, LPS (100 ng/mL) and the samples (3–100 μM) were added to the MEM medium. After 24 h, the medium was mixed with Griess reagent (0.04 g/mL) at a 1:1 ratio. The absorbance was measured after 15 min at 540 nm. Cell viability was determined using the resazurin assay.
To determine TNF-α levels, cells were precultivated with the tested compounds for 24 h. After 2 h of incubation with LPS, the medium was diluted 1:10 with ELISA diluent. To determine the level of IL-6, cells were cultivated for 6 h with LPS and the tested compounds. Cytokine production was determined using an uncoated ELISA performed according to the manufacturer’s instructions.

[2] = tested on: immortalized human keratinocytes (HaCaT); assay: Cytotoxicity (resazurin assay), keratinocytes; type: cell-based; conditions: Homo sapiens, HaCaT, 72 h, read-out: HaCaT IC50 (concentration that halved the viability)
Description: The cytotoxicity of the prepared derivatives was evaluated by their ability to decrease the viability of immortalized human keratinocytes (HaCaT) and human dermal fibroblasts (HDF).
100 μL of cell suspension containing 10^5 cells/mL was pipetted into a 96-well plate. After 24 h incubation, the tested compounds were added in the concentration range 12.5–200 μM. After 72 h incubation, the cell viability was tested by standard resazurin assay.[41] Briefly, the cells were washed with PBS and incubated with 100 μL of resazurin solution (0.025 mg/mL) for 2 h. The fluorescence was measured at a wavelength of 560 nm excitation/590 nm emission.

[3] = tested on: Staphylococcus aureus MRSA 9; assay: Modulation of antibiotic-resistant phenotype (flavonoid plus breakpoint concentration of antibiotic); type: cell-based; conditions: for minimum inhibitory concentration (MIC) in the presence of erythromycin: erythromycin at breakpoint concentration 1 mg/L; for minimum inhibitory concentration (MIC) in the presence of erythromycin / minimum inhibitory concentration (MIC) in the presence of gentamicin: MIC determined as IC70, three repetitions ± SEM; for minimum inhibitory concentration (MIC) in the presence of gentamicin: gentamicin at breakpoint concentration 1 mg/L
Description: To evaluate the ability to modulate bacterial resistance, the tested flavonoids themselves cannot exert antimicrobial activity; therefore, the nontoxic concentration was used, as indicated in Table S5. Clinically relevant antibiotics were selected at breakpoint concentrations for susceptibility testing according to the European Committee on Antimicrobial Susceptibility Testing (EUCAST, version 11.0). […] Flavonoids and their derivatives (from 1 μM to the highest nontoxic concentration) were used in combination with the breakpoint concentration of the antibiotics. After coincubation, the minimum inhibitory concentration (MIC) of flavonoids inhibiting the visible growth of bacteria was determined (Table 2).
(§1) Sensitization of multidrug-resistant clinical bacterial strains was performed according to ref[15]. Antibiotic cutoff concentration was chosen according to the European Committee on Antimicrobial Susceptibility Testing (EUCAST, Clinical breakpoints–bacteria, ver. 11.0). The 200 μM concentration of the derivatives was chosen as the highest test concentration. The absorbance detected at 600 nm was then used to estimate the number of viable cells after 24 h of incubation at 37 °C and 120 rpm.
(§2) Experiments were performed with the respective number of replicates indicated in each figure/table. MIC was determined as IC70. Both IC70 and IC50 values were calculated using the following nonlinear regression in the software GraphPad Prism: […]

MRSA 1584 = assay: Mode of antimicrobial action with gentamicin, aac(6')/aph(2')-positive strain; type: cell-based, Staphylococcus aureus; conditions: for effect (mode of action with gentamicin) / FIC (Fractional Inhibitory Concentration Index) / MIC: MRSA 1584; for MIC, Gentamicin [1 mg/L] yes: MRSA 1584 (aac(6')/aph(2')), with gentamicin 1 mg/L; for FIC (Fractional Inhibitory Concentration Index): with gentamicin; for MIC: Staphylococcus aureus, 24 h, read-out: MIC, Gentamicin [1 mg/L] no, without gentamicin
Text: Among the mechanisms of resistance to gentamicin previously described in S. aureus, the presence of enzymes that alter the structure of aminoglycosides is crucial. These enzymes can transfer nucleotides, phosphates, or acetyls to various −OH or −NH2 groups of gentamicin, preventing its subsequent interaction with the cellular target, i.e., the 30S ribosomal subunit. The bifunctional aminoglycoside-modifying enzyme with acetylation and phosphotransferase activities encoded by the gene aac(6’)/aph(2’), 4′,4″ adenyltransferase encoded by the aadD gene, and aminoglycoside O-phosphotransferase encoded by the gene aph(3′) are the most important.[37] […] For this reason, further testing continued using strains MRSA 3596 and MRSA 1584, which inactivate gentamicin only by a single mechanism (aadD and aac(6’)-aph(2’’), respectively).
as §1, §2

S. aureus CCM 4223 = assay: Antibacterial activity, antibiotic-sensitive strain; type: cell-based; conditions: Staphylococcus aureus, CCM4223, three repetitions ± SEM
[4] = Mus musculus, RAW264.7, macrophages RAW 264.7
[5] = 72 h incubation, resazurin, average of three repetitions ± SEM

Compound: O=c1c(O)c(-c2ccc(O)c(O)c2)oc2cc(O)cc(O)c12 [compound 4, quercetin, reference compound]
- IC50 (RAW 264.7 cells; [4]): 5.9 ± 0.4 µM
- IC50 (RAW 264.7 cells; macrophages RAW 264.7): 5.85 µM
- IC50 [1]: 55.1 ± 2.1 µM
- IC50 [2]: 127 ± 3.4 µM
- inhibition at 200 µM ([3]; Staphylococcus aureus, MRSA, with gentamicin 1 mg/L, maximum concentration used (200 μM), read-out: maximum concentration used inhibited bacterial growth to): 57%
- minimum inhibitory concentration (MIC) in the presence of erythromycin [3]: 117.3 ± 4.7 µM
- minimum inhibitory concentration (MIC) in the presence of gentamicin [3]: >200 ^note 1 μM
- effect (mode of action with gentamicin) (MRSA 1584): additive (> 0.5-1 indicates additive effects)
- MIC, Gentamicin [1 mg/L] yes (MRSA 1584): 55.6 ± 1.1 µM (≈ 16.8 µg/mL)
- FIC (Fractional Inhibitory Concentration Index) (MRSA 1584): 0.63 ± 0.01
- MIC (MRSA 1584): 88.6 ± 0.3 µM (≈ 26.8 µg/mL)
- IC50 (S. aureus CCM 4223): > 200 µM

Compound: O=c1c(O)c(-c2ccc(O)c(O)c2)oc2c(Nc3ccc(F)cc3)c(O)cc(O)c12 [compound 5, 2-(3,4-Dihydroxyphenyl)-8-(4-fluoroanilino)-3,5,7-trihydroxy-4H–1-benzopyran-4-one]
- IC50 (RAW 264.7 cells; [4]): 3.4 ± 0.2 µM
- IC50 [1]: > 50 µM
- IC50 [2, 5]: 37.6 ± 3.4 µM
- minimum inhibitory concentration (MIC) in the presence of erythromycin [3]: >200 µM
- minimum inhibitory concentration (MIC) in the presence of gentamicin [3]: 45.2 ± 0.6 µM
- effect (mode of action with gentamicin) (MRSA 1584): additive (> 0.5-1 indicates additive effects)
- MIC, Gentamicin [1 mg/L] yes (MRSA 1584): 28.2 ± 0.5 µM (≈ 11.6 µg/mL)
- FIC (Fractional Inhibitory Concentration Index) (MRSA 1584): 0.97 ± 0.02
- MIC (MRSA 1584): 29.2 ± 0.1 µM (≈ 12 µg/mL)
- IC50 (S. aureus CCM 4223): 28 ± 0.1 µM

Compound: O=c1c(O)c(-c2ccc(O)c(O)c2)oc2c(Nc3ccc(C(F)(F)F)cc3)c(O)cc(O)c12 [compound 8, 2-(3,4-Dihydroxyphenyl)-8-(4-(trifluoromethyl)anilino)-3,5,7-trihydroxy-4H–1-benzopyran-4-one]
- change of antioxidant activity compared to the parent compound, in words (RAW 264.7 cells; CAA in macrophages): significantly decreased the antioxidant activity
- IC50 (RAW 264.7 cells; [4]): 11.5 ± 0.3 µM
- IC50 [1]: > 50 µM
- IC50 [2]: 117.1 ± 0.1 µM
- minimum inhibitory concentration (MIC) in the presence of erythromycin [3]: >25 ^note 3 μM
- minimum inhibitory concentration (MIC) in the presence of gentamicin [3]: 8.1 µM and 8.1 ± 0.6 µM
- effect (mode of action with gentamicin) (MRSA 1584): additive (> 0.5-1 indicates additive effects)
- MIC, Gentamicin [1 mg/L] yes (MRSA 1584): 23.9 ± 0.1 µM (≈ 11 µg/mL)
- MIC (MRSA 1584): 24.5 ± 0.4 µM (≈ 11.3 µg/mL)
- IC50 (S. aureus CCM 4223): 39.3 ± 1.8 µM

Compound: O=c1cc(-c2ccc(O)c(O)c2)oc2cc(O)cc(O)c12 [compound 10, luteolin, reference compound]
- IC50 (RAW 264.7 cells; [4]): 4.5 ± 0.5 µM
- IC50 (RAW 264.7 cells; macrophages RAW 264.7): 4.48 µM
- IC50 [1]: 25.9 ± 0.3 µM
- IC50 [2]: 34.7 ± 1 µM
- minimum inhibitory concentration (MIC) in the presence of erythromycin [3]: 147.3 ± 7.7 µM
- minimum inhibitory concentration (MIC) in the presence of gentamicin [3]: 84.7 ± 1.8 µM
- effect (mode of action with gentamicin) (MRSA 1584): additive (> 0.5-1 indicates additive effects)
- MIC, Gentamicin [1 mg/L] yes (MRSA 1584): 7.6 ± 1.0 µM (≈ 2.18 µg/mL)
- FIC (Fractional Inhibitory Concentration Index) (MRSA 1584): 0.50 ± 0.11
- MIC (MRSA 1584): 15.2 ± 1.4 µM (≈ 4.35 µg/mL)
- IC50 (S. aureus CCM 4223): > 200 µM

Compound: O=c1cc(-c2ccc(O)c(O)c2)oc2c(Nc3ccc(F)cc3)c(O)cc(O)c12 [compound 11, 2-(3,4-Dihydroxyphenyl)-8-(4-fluoroanilino)-5,7-dihydroxy-4H–1-benzopyran-4-one]
- IC50 (RAW 264.7 cells; [4]): 2.9 ± 0.2 µM
- IC50 [1]: 28.4 ± 0.2 µM
- IC50 [2]: 76.9 ± 7.7 µM
- minimum inhibitory concentration (MIC) in the presence of erythromycin [3]: >25 ^note 4 μM
- minimum inhibitory concentration (MIC) in the presence of gentamicin [3]: 7.9 µM and 7.9 ± 0.5 µM
- effect (mode of action with gentamicin) (MRSA 1584): additive (> 0.5-1 indicates additive effects)
- MIC, Gentamicin [1 mg/L] yes (MRSA 1584): 15.7 ± 0.9 µM (≈ 6.21 µg/mL)
- FIC (Fractional Inhibitory Concentration Index) (MRSA 1584): 0.65 ± 0.06
- MIC (MRSA 1584): 24.1 ± 0.7 µM (≈ 9.53 µg/mL)
- IC50 (S. aureus CCM 4223): 42 ± 1.2 µM

Compound: COc1ccc(Nc2c(O)cc(O)c3c(=O)cc(-c4ccc(O)c(O)c4)oc23)cc1 [compound 12, 2-(3,4-Dihydroxyphenyl)-8-(4-methoxyanilino)-5,7-dihydroxy-4H–1-benzopyran-4-one]
- IC50 (RAW 264.7 cells; [4]): 3.4 ± 0.1 µM
- IC50 [1]: > 50 µM
- IC50 [2, 5]: 59.3 ± 6.3 µM
- minimum inhibitory concentration (MIC) in the presence of erythromycin [3]: 76.3 µM and 76.3 ± 1.9 µM
- minimum inhibitory concentration (MIC) in the presence of gentamicin [3]: 44.0 ± 1.6 µM
- effect (mode of action with gentamicin) (MRSA 1584): additive (> 0.5-1 indicates additive effects)
- MIC, Gentamicin [1 mg/L] yes (MRSA 1584): 47.1 ± 0.8 µM (≈ 19.2 µg/mL)
- FIC (Fractional Inhibitory Concentration Index) (MRSA 1584): 0.65 ± 0.03
- MIC (MRSA 1584): 72.9 ± 2.4 µM (≈ 29.7 µg/mL)
- IC50 (S. aureus CCM 4223): 54 ± 0.1 µM

Compound: O=c1cc(-c2ccc(O)c(O)c2)oc2c(Nc3ccccc3)c(O)cc(O)c12 [compound 13, 2-(3,4-Dihydroxyphenyl)-8-(anilino)-5,7-dihydroxy-4H–1-benzopyran-4-one]
- IC50 (RAW 264.7 cells; [4]): 3.1 ± 0.1 µM
- IC50 [1]: > 25 µM
- IC50 [2, 5]: 41.4 ± 3.7 µM
- minimum inhibitory concentration (MIC) in the presence of erythromycin [3]: >200 µM
- minimum inhibitory concentration (MIC) in the presence of gentamicin [3]: 24.7 ± 0.8 µM
- effect (mode of action with gentamicin) (MRSA 1584): additive (> 0.5-1 indicates additive effects)
- MIC, Gentamicin [1 mg/L] yes (MRSA 1584): 49.9 ± 8.1 µM (≈ 18.8 µg/mL)
- FIC (Fractional Inhibitory Concentration Index) (MRSA 1584): 0.70 ± 0.12
- MIC (MRSA 1584): 70.9 ± 0.3 µM (≈ 26.8 µg/mL)
- IC50 (S. aureus CCM 4223): 50 ± 1.2 µM
